Measurements published in ChEMBL document CHEMBL1149008, “Antitumor agents, 81. Justicidin-A and diphyllin, two cytotoxic principles from Justicia procumbens” (1986).
In brackets after ≈: the same amount, converted by molar mass.

Each compound was assayed on KB (assay: Cytotoxicity against human KB cells). Conditions: read-out: ED50 (the source's name).
Assay type: functional

Compared with O=C1OCc2c1cc1cc3c(cc1c2-c1ccc2c(c1)OCO2)OCO3, COc1c2c(c(-c3ccc4c(c3)OCO4)c3cc4c(cc13)OCO4)COC2=O [NEOJUSTICIN A] is lower in EC50: greater than 10.5 µg/mL for the first, 9 µg/mL (≈ 23.8 µM) for the second.

COc1cc2c(O)c3c(c(-c4ccc5c(c4)OCO5)c2cc1OC)C(=O)OC3 [DIPHYLLIN] and COc1cc2c(OC)c3c(c(-c4ccc5c(c4)OCO5)c2cc1OC)C(=O)OC3 [JUSTICIDIN A] cannot be ordered by EC50: less than 1 µg/mL for the first, less than 1 µg/mL for the second.

For COc1cc2c(OC)c3c(c(-c4ccc5c(c4)OCO5)c2cc1OC)COC3=O [NEOJUSTICIN B], the EC50 was greater than 10.5 µg/mL.
